Data taken from patent US20260071252A1, “REVERSIBLE NANOPARTICLE AGGREGATES AND METHODS FOR DETECTING PROTEASES” (The Regents of the University of California, priority 2022, published 2026).
Values joined by “and” are separate entries in the source; they are usually repeats but may differ in a detail not shown here. Equal entries are not always repeated.

Legend:
HS-PEG-RRK conjugate = tested on: T1, HS-PEG-RRK conjugate
T1 sequence: RRK

HS-PEG-RRKRRK conjugate = tested on: T2, HS-PEG-RRKRRK conjugate
T2 sequence: RRKRRK

[1] = tested on: T3, HS-PEG-RRKRRKRRK conjugate
T3 sequence: RRKRRKRRK

HS-PEG-TSG conjugate = tested on: T4, HS-PEG-TSG conjugate
T4 sequence: TSG

[2] = Colloidal stability of the dissociated AuNPs (aggregation parameter); assay type: physicochemical
Method: We further studied the role of Glu, Lys, and Pro amino acids in A1 peptides (FIG. 37h). For example, Pro-based spacer can provide a rigid and self-assembling monolayer (SAM) that increases the colloidal stability of AuNPs.^28 When the spacer was moved to the site between Glu and Lys residues (i.e., A5), the dissociation capacity was 50% lower than A1 peptide. […] A1 peptide without Lys (i.e., A7) decreased to 30% of the dissociation capacity likely due to the decrease in grafting kinetics of thiol-Au bonds and hydration layers.^22,25 Lastly, the dissociated AuNPs were incubated in different concentrations ([…]) of NaCl to examine colloidal stability of the dissociated AuNPs (FIG. 37i).
Pro-, Ala-, and Gly-based spacers have different hydrophobic and hydrophilic natures, rigidity, and flexibility.^22,29 For example, Pro residue is more hydrophobic and rigid (i.e, low mobility) while Gly residue is more hydrophilic and flexible. To investigate the impact of the rigidity and hydrophilicity of the peptides on the particle dissociation, we synthesized A1, A10, and A11 peptides that have different spacers: PP, AA, GG (FIG. 38a-b and FIG. 49). We also synthesized the peptide without a spacer (i.e., A9) to confirm the impact of the spacer on particle dissociation. […] We further compared colloidal stability of the dissociated AuNPs by A1, A9, A10, and A11 peptides. The dissociated AuNPs were incubated in NaCl (from […]) for 1 h and measured variations of absorbance between 520 nm and 600 nm.
This exemplary dissociation strategy can also improve colloidal stability of plasmonic nanoparticles. […] Lastly, this exemplary dissociation strategy is less affected by matrix interference. We replaced the sample matrix with 100% human plasma, urine, saliva, and seawater after RRK-based AuNPs aggregation. After adding dissociation peptides, reversible aggregation still occurred, leading to a blue-shift of the plasmonic resonance peak; this in turn changes color from blue to red in 100% human plasma, urine, saliva, and seawater (FIG. 40j-k and FIG. 27).

[3] = target: SARS-CoV-2 main protease (Mpro) (Severe acute respiratory syndrome coronavirus 2, UniProt P0DTD1)
[4] = Dissociation efficiency of HS-PEG6-OCH3 for alternative assembly conditions or coating ligands; conditions: high concentration (>100 μM) of HS-PEG6-OCH3
Method: First, peptide-free conditions were used to promote the assembly of AuNPs-citrate and its dissociation with HS-PEG6-OCH3 was evaluated (FIG. 3A). Here, salts were added to AuNPs-citrate to induce aggregation via disruption of the electrostatic repulsion forces between the particles. […] Unlike the peptide Arg-Arg, these ions cannot sterically prevent the AuNPs from falling in an irreversible aggregated state.
AuNPs with different coating ligands were also evaluated and compared to citrate: bis(p-sulfonatophenyl)phenylphosphine (BSPP), mercaptobenzoic acid (MBA), or thiolated PEG-COOH (HS-PEG-COOH; Mw=634 g·mol^−1). […] This is because MBA and HS-PEG-COOH make covalent Au—S bonds with the gold surface that prevent subsequent grafting of HS-PEG6-OCH3.
Finally, an alternative control peptide was used for assembly (Cys-Arg-Lys).

[5] = Peptide-enabled dissociation of RRK-induced AuNP aggregates
Method: After inducing AuNP aggregates by the RRK peptides, the A1 peptides with different concentrations from 7 to 300 μM were used to dissociate AuNP aggregates. The plasmonic resonance peak of AuNP aggregates blue shifted to 520 nm after particle dissociation. (FIG. 37b). The hydrodynamic diameter of AuNP aggregates (greater than (>) 1 μm) was reduced to 27±0.07 nm, and the surface charge of AuNPs was—13.4±1.03 mV because of surface modification with neutral charged A1 peptides (150 μM) and residual citrates (FIG. 37c). Particle dissociation induced color change from blue to red and a decrease in size as confirmed by time-dependent photographs, multi-laser wavelength nanoparticle tracking analysis (M-NTA), and TEM (FIG. 37d-e and FIG. 45A-C).
To further study the role of each amino acid in the A1 peptide, we synthesized eight peptide sequences (from A2 to A8) for control experiments (FIG. 46A-H). Table 1 includes peptide sequence, net charge, critical dissociation concentrations (CDC), and design rationale. First, we replaced Cys residue with Gly (i.e., A2) to confirm the role of the anchoring group. […] Second, we hypothesized that negatively charged EE residues were required for particle dissociation because they provide electrostatic repulsions for citrate-coated AuNPs.
Briefly, 10 μM of RRK peptide was used to aggregate 100 μL of AuNPs (conc approximately 3.6 nM). The particle aggregation rapidly occurred (less than 10 s), changing color from red to blue. Then the desired dissociation peptides were used to dissociate the AuNP aggregates. It is notable that these exemplary AuNPs are stabilized by citrate. Different surface ligands (for example, BSPP) and different sizes (40 or 60 nm) require different amounts of RRK peptide for particle aggregation.
Briefly, RRK peptides (8-10 μM) was first used to trigger AuNP aggregation in distilled water. The sample was centrifuged at […] for 5 min to remove the supernatant. Then, the pellet was re-dispersed in 100% human saliva, plasma, urine, and seawater. After re-dispersion, the desired amounts of dissociation peptide were used to dissociate AuNPs aggregates in different matrixes. […] The experiment was performed with three replicates, and the microplate reader was used to measure spectral scanning from 300 to 900 nm before and after dissociation. The ratiometric signal (λ520/λ700) was referred as dissociation. The data was blanked to remove background signal.

[6] = Dissociation of Arg-Arg-AuNPs assemblies with HS-PEGs (UV-Vis percentage of dissociation, MANTA size)
From the text: Dissociation of the AuNPs assemblies. […] HS-PEG6-OCH3 was chosen because its grafting on AuNPs ensure a high colloidal stability of these latter. Indeed, the grafting of thiolated PEGs has been widely reported in the literature via the formation of a strong Au—S bond conferring to the particles a high colloidal stability due to a combination of hydrophilicity and steric hindrance.^30-32 The Au—S bond being stronger than the arginine-citrate, arginine-gold or even citrate-gold interactions, […] was expected to be capable of progressively replacing the arginine/citrate layers at the gold surface, disrupting the electrostatic network, and eventually dispersing the AuNPs (Scheme 1). Briefly, aqueous suspensions Arg-Arg-AuNPs assemblies were exposed to increasing concentrations of HS-PEG6-OCH3, and the dissociation of the assemblies was characterized by TEM, MANTA, FTIR and UV-Vis spectroscopies (FIG. 2).
The presence of a PEG layer around the AuNPs explains the difference in the hydrodynamic diameter versus the initial AuNPs-citrate (48±32 nm vs 40±25 nm). Remarkably, the LSPR band of the dissociated AuNPs was identical to the AuNPs-citrate: The color of the sample returned to its initial bright red color. […] For the remainder of this study, the efficiency of the dissociation will be characterized by the percentage of dissociation (%) as measured by UV-Vis spectroscopy (comparison between the LSPR band after dissociation versus that from AuNPs-citrate). See the experimental section in the supporting information for more details. […] This finding is particularly interesting because the typical grafting density of HS-PEG6-OCH3 on dispersed AuNPs is reported to be between 3.5 and 4 HS-PEG6-OCH3/nm^2.^33 This implies that no excess of HS-PEGs was needed to dissociate the entire assembly-only enough to cover all the gold surface. It is worth noting that the kinetics of the dissociation was almost instantaneous (equilibrium reached within a minute) (FIG. 14). A video of the dissociation of the AuNPs assemblies is available online.
Dissociation. Stock solutions of the different HS-PEGs with concentrations ranging from 10 μM to 1 mM were prepared. Specific volumes of each solution were added to a 96-well plate in order to reach the desired final HS-PEGs concentration and then 100 μL of Arg-Arg-AuNPs were added. For complex matrices experiments, the Arg-Arg-AuNPs were first concentrated 10 times by centrifugation and then dispersed in complex media (sea water, pooled human saliva, plasma, urine, bile or HEK cell lysates) that represented thus 90% of the total volume except for bile, which was only 20%. Quickly after the addition of AuNPs, the dissociation of the assembly was monitored and the ratio of the absorbances at 520 nm and 700 nm was recorded over time. The percentage of dissociation is described as follows:
The optical absorption measurements were collected using a hybrid multi-mode microplate reader (Synergy™ H1 model, BioTek Instruments, Inc.) in a 96-well plate. The dissociation of assembly was characterized by measuring the ratio of the absorbance at 520 nm or 530 nm and 700 nm or 820 nm for 20 nm NPs or 40 nm NPs, respectively.
The multispectral advanced nanoparticle tracking analysis (MANTA) is a technique that builds images from the particles' light scattering via three lasers of different wavelengths (for example, blue, green, and red); the wavelength of scattering depends on nanoparticle size. Thus, small particles (less than, or <, 100 nm) appear blue while larger particles appear greener or redder. MANTA uses these images to count the nanoparticles and calculate their size based on Brownian motion. […] 3000™ (Horiba Scientific, USA). The temperature was set to 25° C. during the measurement. Automated noise analysis determines the optimal wavelength for representing each nanoparticle. Here, 8-bit composite videos were generated, and 10 videos were used per analysis (300 frames for seconds).

[7] = Dissociation of AgNP aggregates by A18 fragments released by Mpro cleavage; conditions: AgNPs 20 nm, color from blue to yellow

trypsin
dissociation capacity for Arg-Arg-AuNPs after trypsin digestion (HS-PEG-RRK conjugate): HS-PEG-RRK was also enhanced
dissociation capacity for Arg-Arg-AuNPs after trypsin digestion (HS-PEG-RRKRRK conjugate): the dissociation capacity of HS-PEG-RRKRRK (SEQ ID NO:13) and HS-PEG-[..] (SEQ ID NO:14) was restored
dissociation capacity for Arg-Arg-AuNPs after trypsin digestion [1]: the dissociation capacity of HS-PEG-RRKRRK (SEQ ID NO:13) and HS-PEG-[..] (SEQ ID NO:14) was restored
dissociation capacity for Arg-Arg-AuNPs after trypsin digestion (HS-PEG-TSG conjugate): It is not impacted by the digestion by trypsin

Ace-CGGKKEEAVLQSGFR-Am (Ac-CGGKKEEAVLQSGFR-NH2) [Peptide A18]
colloidal stability in extreme conditions ([2]; DMEM, human plasma, saliva, human urine, NaCl 0.5 to 2M): maintained high colloidal stability
CDC [3]: at least 40 μM
LoD for Mpro [3]: 12.3 nM and 16.7 nM and 16.4 nM
specificity test [3]: only Mpro dissociated AuNP aggregates

Cys-Arg-Lys [reference compound]
dissociation of the assembly by HS-PEG6-OCH3 [4]: irreversible

Ace-EEKKPPC-Am [Peptide A1]
time to dissociate AuNP aggregates ([5]; >150 μM peptide, ratiometric signal λ520/λ700): 20 min
hydrodynamic diameter after dissociation ([5]; A1 peptide 150 μM, aggregates >1 μm before): 27±0.07 nm
CDC ([5]; critical dissociation concentration, X (no dissociation)): 150 µM
CDC ([5]; spacer comparison PP, AA, GG): 40 µM
colloidal stability of peptide-capped AuNPs ([2]; NaCl 0.5 to 2 μM (so in the source), absorbance 520/600 nm): higher colloidal stability than citrate-coated AuNPs

COCCOCCOCCOCCOCCOCCOCCS [HS-PEG6-OCH3, 0-(2-mercaptoethyl)-O′-methyl-hexa(ethylene glycol)]
size of the aggregates (MANTA) ([6]; 2 μM HS-PEG6-OCH3, 10 minutes, from 467±120 nm): 167±112 nm
average size of the aggregates (MANTA) ([6]; 4 μM HS-PEG6-OCH3): 136±85 nm
average size of the aggregates (MANTA) ([6]; 8 μM HS-PEG6-OCH3): 124±75 nm
dissociation in complex matrices ([6]; 10 μM HS-PEG6-OCH3, plasma, urine, saliva, bile, HEK 293 cell lysates, sea water, matrix at least 90% of volume): At least 80%
aggregates dissociated ([6]; 12 μM HS-PEG6-OCH3, LSPR band identical to AuNPs-citrate): 100%
mean size (MANTA) ([6]; 12 μM HS-PEG6-OCH3 and above): 48±25 nm
dissociation of the assembly by HS-PEG6-OCH3 [4]: could not dissociate the assemblies

CGGKKEEAVLQ [A18 fragment]
dissociation of AgNP aggregates [7]: could dissociate AgNP aggregates
CDC [3]: 40 µM
size of AuNP aggregates after dissociation [3]: 26±0.30 nm
surface charge after dissociation [3]: −27±0.95 mV
time for dissociation [3]: ≤ 10 min
